These results are taken from US20130023589A1, “MEDICATION FOR THERAPY OR PROPHYLAXIS OF ASTHMA” (priority 2011, published 2013).

Experiment [1] relates to primary human bronchial smooth cells (BSMC). Nature of the experiment: QCM Chemotaxis cell migration assay of BSMCs cocultured with DBP-treated BEAS-2B cells. It counts as cell-based. The note with it: 5 μM ginger compound, then coculture with DBP-BEAS for 24 hours; groups A1-7 to A1-10, FIG. 6. The method, then: (§1) With reference to FIG. 5, the plasticizers-treated bronchial smooth muscle cells are prepared by processing two steps. In the first step, a plasticizer-treated bronchial epithelial cell line is obtained by harvesting a human bronchial epithelial cell line in a chemical plasticizer at 37±1° C. for 6 hours, with each 100 mm incubating plate receiving 2×10^6 cells and with the treatment of the chemical plasticizer to induce the excretion of proinflammatory cytokines in the human bronchial epithelial cell line, such as IL-8 and RANTES, followed by removing the chemical plasticizer from the human bronchial epithelial cell line, reincubating the human bronchial epithelial cell lines in a culturing medium for 24 hours, and finally collecting the supernatants to obtain plasticizers-treated bronchial epithelial cells of the present invention. In specification, the chemical plasticizer of the present invention can be selected from a group of butylbenzyl phthalate (BBP), bis-(2-ethylhexyl) phthalate (BEHP), dibutyl phthalate (DBP) and diethyl phthalate (DEP), and with the concentration of 0.1 to 5.0 μM.
(§2) In the second step, the plasticizer-treated bronchial epithelial cells obtained from the first step are coincubated with a human bronchial smooth muscle cell line to obtain the plasticizer-treated bronchial smooth muscle cells of the present invention. […]
With reference of TABLE 1, the BSMCs are previously seeded into a migration chamber for 24 hours, with the BSMCs placing on the surface of the migration chamber, and randomly assigned into 10 groups including A1-1 to A1-10 to carry out various treatments between 10 groups. […] After the treatments, the BSMCs of the groups A1-1 to A1-10 are analyzed by a QCM Chemotaxis […] cell migration assay system (Chemicon, Temecula, Calif.; Millipore Corp, Bedford, Mass.), with the BSMCs in each group being stained, lysed and finally quantified on a microplate at 560 nm. […]

For experiment [2] the test system is unchanged. Nature of the experiment: WST-1 cell proliferation assay of BSMCs cocultured with DBP-treated BEAS-2B cells. It counts as cell-based. The note with it: 5 μM ginger compound for 1 hour, then coculture with DBP-BEAS for 72 hours; groups A2-7 to A2-10, FIG. 7. How it is done:
as §1, §2
Additionally, with reference to TABLE 2, the BSMCs are placed and preincubated in 96-well culture plates for 24 hours, followed by randomly assigning into 10 groups including A2-1 to A2-10 to carry out various treatments between 10 groups. […] After the various treatments of each group, the proliferation degrees of BSMCs in each group are determined by Premixed WST-1 Cell Proliferation Reagent (Clontech Laboratories Inc., Mountain View, Calif.).
On the technique in general: Tetrazolium assays rely on reduction of a dye to a coloured formazan, in cell work by metabolically active cells.

Molecules are shown by their SMILES.

As to `CCCCC[C@H](O)CC(=O)CCc1ccc(O)c(OC)c1` [[6]-gingerol], in experiment [1], the “plasticizer-induced airway remodeling: migration of BSMCs” value is “sufficient in suppressing”. Moreover, the “plasticizer-induced airway remodeling: proliferation of BSMCs” value in experiment [2] was “sufficient in suppressing”.
Turning to `CCCCC/C=C/C(=O)CCc1ccc(O)c(OC)c1` [[6]-shogaol], the “plasticizer-induced airway remodeling: migration of BSMCs” value in experiment [1] is recorded as “sufficient in suppressing”. In addition, in experiment [2], the “plasticizer-induced airway remodeling: proliferation of BSMCs” value is recorded as “sufficient in suppressing”.
In the case of `CCCCCCCCC[C@H](O)CC(=O)CCc1ccc(O)c(OC)c1` [[10]-gingerol], in experiment [1], the “plasticizer-induced airway remodeling: migration of BSMCs” value is listed as “sufficient in suppressing”. Besides, the “plasticizer-induced airway remodeling: proliferation of BSMCs” value in experiment [2] is “sufficient in suppressing”.
